Data set [1] deals with T1, farnesyl protein transferase (FPT), partially purified from rat brain (Rattus norvegicus, UniProt Q02293+Q04631).
T1 construct: were partially purified from rat brain by ammonium sulfate fractionation followed by Q-Sepharose
Kind of data set: Inhibition of farnesyl protein transferase (transfer of [3H]farnesyl to Ras-CVLS). It is filed as biochemical. Particulars: for IC50: read-out: FPT IC50. The method, boiled down: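 Partially purified farnesyl protein transferase with His6-tagged val12-Ha-Ras-CVLS substrate and [3H]farnesyl pyrophosphate, 30 min at room temperature. Stopped with SDS/TCA, precipitated Ras collected on GF/C filters; percent inhibition relative to DMSO vehicle control.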

Data set [2] has as its target T2, geranylgeranyl protein transferase (GGPT) I (Rattus norvegicus, UniProt P53610+Q04631).
T2 construct: were partially purified from rat brain by ammonium sulfate fractionation followed by Q-Sepharose
Kind of data set: Inhibition of geranylgeranyl protein transferase I (Ras-CVLL as acceptor). The format is biochemical. Particulars: enzyme inhibition. The source says:
1. In vitro enzyme assays: Inhibition of farnesyl protein transferase and geranylgeranyl protein transferase.
Both farnesyl protein transferase (FPT) and geranylgeranyl protein transferase (GGPT) I were partially purified from rat brain by ammonium sulfate fractionation followed by Q-Sepharose (Pharmacia, Inc.) anion exchange chromatography essentially as described by Yokoyama et al (Yokoyama, K., et al., (1991), A protein geranylgeranyltransferase from bovine brain: Implications for protein prenylation specificity, Proc. Natl. Acad. Sci USA 88: 5302-5306, the disclosure of which is incorporated herein by reference thereto). Human farnesyl protein transferase was also expressed in E. coli, using cDNA clones encoding both the α and β subunits. The methods used were similar to those published (Omer, C. et al., (1993), Characterization of recombinant human farnesyl protein transferase: Cloning, expression, farnesyl diphosphate binding, and functional homology with yeast prenyl-protein transferases, Biochemistry 32:5167-5176). Human farnesyl protein transferase was partially-purified from the soluble protein fraction of E. coli as described above. […] Two forms of val^12-Ha-Ras protein were prepared as substrates for these enzymes, differing in their carboxy terminal sequence. One form terminated in cysteine-valine-leucine-serine (Ras-CVLS) the other in cystein-valine-leucine-leucine (Ras-CVLL). Ras-CVLS is a substrate for the farnesyl protein transferase while Ras-CVLL is a substrate for geranylgeranyl protein transferase I. The cDNAs encoding these proteins were constructed so that the proteins contain an amino-terminal extension of 6 histidine residues. Both proteins were expressed in Escherichia coli and purified using metal chelate affinity chromatography. The radiolabelled isoprenyl pyrophosphate substrates, [^3H]farnesyl pyrophosphate and [3H]geranylgeranyl pyrophosphate, were purchased from DuPont/New England Nuclear.
The geranylgeranyl protein transferase I assay was essentially identical to the farnesyl protein transferase assay described above, with two exceptions: [^3H]geranylgeranylpyrophosphate replaced farnesyl pyrophosphate as the isoprenoid donor and Ras-CVLL was the protein acceptor.

Data set [3] has as its system Ras-CVLS processing in COS monkey kidney cells. The data set can be described thus: COS cell assay: Ras-CVLS processing (Western blot). Particulars: Primates, COS, COS cells; read-out: Inhibition of Ras Processing IC50. It is filed as cell-based. The method, boiled down:
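COS cells electroporated with Ras-CVLS (farnesyl transferase substrate) cDNA, with drug-containing fresh medium added at 24 h and cells examined at 48 h. TCA-precipitated cellular protein was resolved by SDS gel and immunoblotted with anti-p21 Ras monoclonal and HRP anti-rat IgG to monitor Ras processing.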
(In western blotting, separated proteins are transferred to a membrane and probed.)

Data set [4] has as its system Normal human HEPM fibroblasts. The data set can be described thus: Cell Mat Assay: density of mat cells (mIC50). It is filed as cell-based. The following applies: Homo sapiens, Fibroblast. The method, boiled down:
(§1)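 Serial compound dilutions added 24 h after planting T24-BAG4 cells onto a mat of normal cells, then 14 d colony growth; monolayers glutaraldehyde-fixed and tumor cells X-Gal stained. tIC50 and mIC50 from microscope counts of colonies, cells per colony and mat cell density.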

In data set [5] the test system is T24-BAG4 human bladder carcinoma cells expressing an activated H-ras gene. The data set can be described thus: Cell Mat Assay: tumor cell colony inhibition (tIC50). It is filed as cell-based. Particulars: Homo sapiens, inhibition of tumor cell growth. The method, boiled down: as §1
Setting [6] is: Ras-CVLS farnesylation, partially purified rat brain FPT.

Where two headings read alike, the source gives them in different places.

T1 sequence (Q02293 whole entry, one chain of several): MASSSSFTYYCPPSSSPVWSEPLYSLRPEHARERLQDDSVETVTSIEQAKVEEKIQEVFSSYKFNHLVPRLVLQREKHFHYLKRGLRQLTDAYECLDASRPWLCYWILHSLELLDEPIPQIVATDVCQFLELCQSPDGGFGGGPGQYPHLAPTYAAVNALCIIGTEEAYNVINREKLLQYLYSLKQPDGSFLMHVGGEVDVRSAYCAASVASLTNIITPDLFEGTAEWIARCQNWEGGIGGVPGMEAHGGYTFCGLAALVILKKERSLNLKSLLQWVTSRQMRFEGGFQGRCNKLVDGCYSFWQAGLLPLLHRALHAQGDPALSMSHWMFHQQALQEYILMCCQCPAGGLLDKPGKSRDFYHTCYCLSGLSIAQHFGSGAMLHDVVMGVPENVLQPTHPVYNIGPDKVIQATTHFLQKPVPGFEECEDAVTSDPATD
T2 sequence (P53610 whole entry, one chain of several): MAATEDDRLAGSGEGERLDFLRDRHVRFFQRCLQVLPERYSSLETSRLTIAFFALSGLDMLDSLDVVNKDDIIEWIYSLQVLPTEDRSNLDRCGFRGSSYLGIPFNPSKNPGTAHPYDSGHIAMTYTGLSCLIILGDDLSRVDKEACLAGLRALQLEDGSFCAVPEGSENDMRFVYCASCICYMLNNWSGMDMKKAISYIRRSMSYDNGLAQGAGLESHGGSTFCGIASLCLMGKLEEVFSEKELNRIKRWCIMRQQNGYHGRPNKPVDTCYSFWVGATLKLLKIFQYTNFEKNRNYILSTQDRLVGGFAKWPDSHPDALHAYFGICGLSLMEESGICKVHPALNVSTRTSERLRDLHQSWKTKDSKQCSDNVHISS

Regarding `O=C(c1ccncc1)N1CCC(=C2c3ccc(Cl)cc3CCc3cccnc32)CC1` [Example 15], the melting point lay within 176 to 178 °C. For the same molecule, the IC50 in data set [1] (setting [6]) worked out at 4700 nM.
As to `O=C(c1cc[n+]([O-])cc1)N1CCC(=C2c3ccc(Cl)cc3CCc3cccnc32)CC1` [Example 22], the melting point was 228 °C (dec.). Also, the IC50 in data set [1] (setting [6]) was 6000 nM.
In turn, `CN1C(=O)C(CCC(=O)N2CCC(=C3c4ccc(Cl)cc4CCc4cccnc43)CC2)NC1=S` (stereo not drawn) [Example 23] had a melting point of 205 to 207 °C. Besides, in data set [1] (setting [6]), the IC50 was 6000 nM.
With `O=C1CCC(C(=O)N2CCC(=C3c4ccc(Cl)cc4CCc4cccnc43)CC2)=NN1` [Example 35], the melting point was in the range of 190 to 193 °C. Further, the IC50 in data set [1] (setting [6]) was found to be 9900 nM.
`O=C(C(CO)c1ccccc1)N1CCC(=C2c3ccc(Cl)cc3CCc3cccnc32)CC1` (stereo not drawn) [Example 41, 8-chloro-1-[ -(2-hydroxy-1-phenylethylcarbonyl)-4-piperidylidene]-6,11-dihydro-5H-benzo[5,6]-cyclohepta-[1,2-b]pyridine] returned a melting point of 92.7 to 93 °C. Also, the IC50 in data set [1] (setting [6]) was found to be 6100 nM.
The molecule `O=C(C(=O)N1CCC(=C2c3ccc(Cl)cc3CCc3cccnc32)CC1)c1c[nH]c2ccccc12` [Example 219] displayed a melting point of 192 to 193 °C. Also, in data set [1] (setting [6]), the IC50 is 6640 nM.
For the molecule `O=C(Cc1ccccc1[N+](=O)[O-])C(=O)N1CCC(=C2c3ccc(Cl)cc3CCc3cccnc32)CC1` [Example 220], the melting point fell in the range of 282 to 285 °C. Further, the IC50 in data set [1] (setting [6]) came to 2490 nM.
Turning to `O=C(Cc1cc[n+]([O-])cc1)N1CCC(=C2c3ccc(Cl)cc3CCc3cccnc32)CC1` [Example 227], the melting point lay in the range of 128 to 130 °C.
In turn, `O=C(Cc1ccc[n+]([O-])c1)N1CCC(=C2c3ccc(Cl)cc3CCc3ccc[n+]([O-])c32)CC1` [Example 231] yielded a melting point of 105 to 107 °C. Besides, in data set [1] (at 12 μM), testing at 12 µM gave an inhibition of 44%.
`O=C(Cc1ccncc1)N1CCC(=C2c3ccc(Cl)cc3CCc3c(On4nnc5ccccc54)ccnc32)CC1` [Example 249]: the melting point fell in the range of 98.6 to 101.6 °C. Moreover, in data set [1] (setting [6]), the IC50 is 640 nM.
On to `CC(C)(C(=O)N1CCC(C2c3ccc(Cl)cc3CCc3cccnc32)CC1)c1ccccc1` (stereo not drawn) [Example 316], for which the IC50 in data set [2] was over 43 µM; in data set [1] (setting [6]), 1260 nM; in data set [3], 18400 nM; in data set [4], over 50 µM; in data set [5], 25 µM.
Take `O=C(Cc1cccnc1)N1CCN(C2c3ccc(Cl)cc3CCc3cc(Br)cnc32)CC1` (stereo not drawn) [Example 351]: the IC50 stood at 1000 µM in data set [2]; 170 nM in data set [1] (setting [6]); 2800 nM in data set [3]; 25 µM in data set [4]; 6.25 µM in data set [5].
Consider `O=C(Cc1cc[n+]([O-])cc1)N1CCC(C2c3ccc(Cl)cc3C=Cc3cc(Br)cnc32)CC1` (stereo not drawn) [Example 400-C], for which the IC50 was over 38 µM in data set [2]; 30 nM in data set [1] (setting [6]); 30 nM in data set [1] (enzyme inhibition); 700 nM in data set [3]; over 25 µM in data set [4]; under 1.6 µM in data set [5].
With `O=C(Cc1ccc[n+]([O-])c1)N1CCC(C2c3ccc(Cl)cc3C=Cc3cc(Br)cnc32)CC1` (stereo not drawn) [Example 400-D], the IC50 was over 38 µM in data set [2]; 210 nM in data set [1] (setting [6]); 210 nM in data set [1] (enzyme inhibition); 2000 nM in data set [3]; over 25 µM in data set [4]; 4 µM in data set [5].
As to `O=C(Cc1ccncc1)N1CCC(C2c3ccc(Cl)cc3C=Cc3cc(Br)cnc32)CC1` (stereo not drawn) [Example 400-G], the IC50 was over 39 µM in data set [2]; 24 nM in data set [1] (setting [6]); 24 nM in data set [1] (enzyme inhibition); 580 nM in data set [3]; over 25 µM in data set [4]; 1.6 µM in data set [5].
With `O=C(Cc1ccnc(Br)c1)N1CCC(=C2c3ccc(Cl)cc3CCc3cc(Br)cnc32)CC1` [Example 506], the melting point fell in the range of 134 to 136.1 °C.

Broadly, the IC50 is the concentration that gives 50% inhibition. The term melting point denotes the temperature of the solid-liquid transition. As usually defined, the inhibition is the percentage by which the read-out fell short of the control.

Values taken from patent US20030055065A1, “Tricyclic amide and urea compounds useful for inhibition of G-protein function and for treatment of proliferative diseases” (priority 1993, published 2003).
